Measurements taken from US10722886B2, “Apparatus for separating fine particles and separating method using same” (UNIVERSITY-INDUSTRY COOPERATION GROUP OF KYUNG HEE …, priority 2014, dated 2020).

System: Jurkat cell
Assay: Cytotoxicity experiment (LDH analysis) on Jurkat cells exposed to Triton X-100
Assay type: cell-based
Details: Jurkat cell exposed to Triton X-100 (0 to 0.1%) for 30 min in CO2 incubator; LDH in separated culture medium, absorbance at 490 nm
Description: After the cell treated using Triton X-100 according to the Example of the present invention was separated using the apparatus for separating the microparticles, the apparatus fastened to the 1 mL syringe, and the conventional centrifuge, the cytotoxicity (%) was measured from the collected cell culture medium.
Specifically, a Jurkat cell was cultured in RPMI (WELGENE Inc., Korea) suspended using a 10% FBS (WELGENE) and a 1% antibiotic solution containing penicillin and streptomycin (WELGENE). In order to visualize the flow of the cell, the cell was washed with DPBS (WELGENE) and then dyed using a 10 μM CFDA cell tracer (Invitrogen) at room temperature for 15 min. After the dyeing, the cell was washed twice with DPBS.
The Jurkat cell was exposed to Triton X-100 at various concentrations (0 to 0.1%) in a CO2 incubator for 30 min. Subsequently, the fluid from which the microparticles were separated was obtained using the apparatus for separating the microparticles, to which the syringe was fastened, according to the present invention (manual injection at room temperature for 3 min), and the centrifuge (at 1000 rpm and room temperature for 5 min). […] The lactate dehydrogenase (LDH) analysis was performed in accordance with the manufacturer's directions (#88953, Pierce, Rockford, Ill.), and the absorbance was then measured at 490 nm. […]

Triton X-100
IC50 value of Triton X-100 (cytotoxicity, LDH analysis): 0.0076%
